Experimental data reported in US20100305174A1, “Novel Heterocyclic Derivatives” (ORCHID RESEARCH LABORATORIES LIMITED, priority 2005, published 2010).
Where two headings read alike, the source gives them in different places. Values belong to the compound of their own block, whether it stands above or below them.

Key:
3T3-L1 cells = test: Glucose uptake assay using 3T3-L1 cells; assay type: cell-based; settings: 1 μM, 72 hours, differentiated 3T3-L1 adipocytes, 14C deoxyglucose uptake; relative to BLX-1002
Procedure: 3T3-L1 cells were differentiated by the addition of differentiation cocktail (72 μg/ml insulin, 0.5 mM IBMX, 400 ng/ml Dexamethasone) for 4 days and later fed with media without differentation cocktail for 7-8 days. After differentiation the cells were incubated with the either reference compound BLX-1002 or compounds listed in the table 1 at 1 μM concentrations for 72 hours and carried out the glucose uptake assay for 10 min by the addition of KRP buffer supplemented with 2.5 μCi/ml ^14C deoxy glucose. Stimulation Index is defined as the amount of ^14C Deoxyglucose uptake induced by 1 μM of BLX-1002 incubated for 72 hrs in an assay condition as per protocol described above with differentiated 3T3-L1 adipocytes. Values of compounds mentioned in table-1 are with reference to stimulation index of reference compound BLX-1002.

TNF-α = TNF-α inhibition in LPS-challenged human PBMC; assay type: cell-based; settings: for % Inhibition TNF alpha / inhibition at 1 µM / inhibition at 10 µM: LPS 100 ng/mL, 20 hours; for inhibition at 1 µM / inhibition at 10 µM: Homo sapiens, PBMC, read-out: % Inhibition TNF alpha
Procedure: (§1) Human PBMC cells were cultured and incubated with compounds listed in table-4 at 1 and 10 μM concentrations. Cells (1×10^6/mL) were challenged with lipopolysaccharides (LPS) at a concentration of (100 ng/mL) for 20 hours. Cell supernatant was analyzed for the presence of TNF-α, IL-1β and IL-6 cytokines by antibody directed enzyme-linked immunoassay.

IL-1β = IL-1β inhibition in LPS-challenged human PBMC; assay type: cell-based; settings: for inhibition at 1 µM / inhibition at 10 µM: Homo sapiens, PBMC, read-out: % Inhibition IL1beta
Procedure: as §1

[1] = tested on: streptozotocin induced diabetic mice; test: Antidiabetic activity in streptozotocin induced diabetic mice; assay type: in vivo, Swiss albino mice; set-up: key to % Reduction Cholesterol / % Reduction Triglycerides / % Reduction Glucose: NR=No Reduction; settings: 50 mg/kg oral, 7 days, plasma, compared to control group; for inhibition in vivo at 50 mg/kg: Mus musculus, 168 h
Procedure: Swiss albino mice of either sex were used in the study at the age of 10 weeks. Diabetes was induced in animals by injecting streptozotocin by i.p. route at a dose of 200 mg/kg body weight. 48 hours after streptozotocin administration, the animals were kept for fasting for 6 hours and blood was collected and plasma separated and glucose was estimated. Animals showing greater than 200 mg/dl glucose levels were considered as diabetic and these animals were randomly distributed into various groups. The compounds listed in the table 3 were administered at a dose of 50 mg/kg body weight by oral route for 7 days. Later animals were fasted for 6 hours and blood was collected and plasma separated. Biochemical estimations like glucose, cholesterol and triglycerides were carried out using the plasma. The effect of compounds mentioned in the table was expressed in terms of percentage reduction in biochemical values as compared to control group.

DPP IV = target: T1, DPP IV (Homo sapiens, UniProt P27487); test: DPP IV assay (human plasma as source, H-gly-pro AMC substrate); assay type: biochemical; settings: compared to vehicle control
T1 construct: using human plasma as a source of DPP IV; from tissue; host or cells: human plasma
T1 sequence (P27487 39-766 limits assumed): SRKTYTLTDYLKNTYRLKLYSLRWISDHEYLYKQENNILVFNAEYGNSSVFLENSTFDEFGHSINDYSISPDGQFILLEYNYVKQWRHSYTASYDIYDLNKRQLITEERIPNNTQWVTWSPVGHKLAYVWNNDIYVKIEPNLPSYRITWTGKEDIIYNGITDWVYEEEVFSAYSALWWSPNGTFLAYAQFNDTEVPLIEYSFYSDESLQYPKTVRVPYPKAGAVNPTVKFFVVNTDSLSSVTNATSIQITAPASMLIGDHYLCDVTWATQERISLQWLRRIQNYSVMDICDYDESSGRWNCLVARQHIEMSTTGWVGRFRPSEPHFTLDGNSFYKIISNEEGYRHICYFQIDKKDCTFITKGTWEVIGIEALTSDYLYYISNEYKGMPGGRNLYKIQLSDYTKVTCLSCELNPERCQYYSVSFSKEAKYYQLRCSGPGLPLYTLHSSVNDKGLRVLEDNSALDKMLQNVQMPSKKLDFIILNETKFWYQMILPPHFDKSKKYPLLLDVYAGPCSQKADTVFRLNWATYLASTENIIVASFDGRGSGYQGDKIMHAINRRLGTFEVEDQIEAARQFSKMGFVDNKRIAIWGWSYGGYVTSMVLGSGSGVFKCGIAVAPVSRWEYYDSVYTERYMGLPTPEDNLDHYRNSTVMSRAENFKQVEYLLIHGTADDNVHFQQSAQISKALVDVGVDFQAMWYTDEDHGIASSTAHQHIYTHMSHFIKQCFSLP
Procedure: DPP IV assay is carried by using human plasma as a source of DPP IV. The compounds were incubated at a concentration of 1 and 10 μM in assay buffer containing DPP IV enzyme. The compounds were incubated for 1 hr and then the substrate H-gly-pro AMC was added and further incubated for 20 min and then the reaction was stopped on addition of 25% glacial acetic acid. The plates were read in a spectrofluorimeter to get RFU on setting excitation wavelength of 360 nm and emission wavelength of 460 nm. Percentage inhibition is calculated as compared to vehicle control.

IL-6 = IL-6 inhibition in LPS-challenged human PBMC; assay type: cell-based; settings: for inhibition at 1 µM / inhibition at 10 µM: Homo sapiens, PBMC, LPS 100 ng/mL, 20 hours
Procedure: as §1

[2] = read-out: % Reduction Triglycerides
[3] = at tested concentrations, statement in words

Compound: 5-(3-methoxy-4-{4-[(3-methyl-2-oxo-1,3-oxazolidin-4-yl)methyl]phenoxybenzylidene)-1,3-dihydro-2H-indol-2-one [Example 11]
Stimulation Index (3T3-L1 cells): 1.12
% Inhibition TNF alpha (TNF-α; 1 μM): 18.77%
% Inhibition TNF alpha (TNF-α; 10 μM): 26.07%
% Inhibition IL1beta (IL-1β; 1 μM, LPS 100 ng/mL, 20 hours): 17.10%

Compound: CCN1C(=O)OCC1Cc1ccc(Oc2ccc(/C=C3/SC(=O)NC3=O)cc2)cc1 (stereo not shown) [Example 3, 5-(4-{4-[(3-ethyl-2-oxo-1,3-oxazolidin-4-yl)methyl]phenoxy}benzylidene)-1,3-thiazolidine-2,4-dione]
% Reduction Cholesterol [1]: NR
% Reduction Glucose [1]: NR
inhibition in vivo at 50 mg/kg [1, 2]: 3.8%

Compound: CN1C(=O)OCC1Cc1ccc(Oc2ccc(/C=C3\C(=O)Nc4ccccc43)cc2)cc1 (stereo not shown) [Example 4]
inhibition at 1 µM (TNF-α; 1 μM): 8.77%
inhibition at 10 µM (TNF-α; 10 μM): 2.85%
inhibition at 1 µM (IL-1β; 1 μM, LPS 100 ng/mL, 20 hours): 1.55%
inhibition at 10 µM (IL-1β; LPS 100 ng/mL, 20 hours): 10.7%

Compound: CCN1C(=O)OCC1Cc1ccc(Oc2ccc(/C=C3\C(=O)Nc4ccccc43)cc2)cc1 (stereo not shown) [Example 5]
inhibition at 1 µM (TNF-α; 1 μM): 1.72%
inhibition at 10 µM (TNF-α; 10 μM): 9.77%

inhibition at 1 µM (DPP IV): 3.55%
inhibition at 10 µM (DPP IV): 7.75%
Compound: CN1C(=O)OCC1Cc1ccc(Oc2ccc(/C=C3/C(=O)Nc4ccccc43)cc2F)cc1 (stereo not shown) [Example 7]
inhibition at 1 µM (TNF-α; 1 μM): 0.93%
inhibition at 10 µM (TNF-α; 10 μM): 6.43%

Compound: CCN1C(=O)OCC1Cc1ccc(Oc2ccc(/C=C3\C(=O)Nc4ccccc43)cc2Cl)cc1 (stereo not shown) [Example 10]
inhibition at 1 µM (TNF-α; 1 μM): 20.2%
inhibition at 10 µM (TNF-α; 10 μM): 35%
inhibition at 1 µM (IL-6): 15.5%
inhibition at 10 µM (IL-6): 7.18%

Compound: CCN1C(=O)OCC1Cc1ccc(Oc2ccc(/C=C3\C(=O)Nc4ccccc43)cc2F)cc1 (stereo not shown) [Example 12]
inhibition at 1 µM (TNF-α; 1 μM): 13.6%
inhibition at 10 µM (TNF-α; 10 μM): 28.1%
inhibition at 1 µM (IL-6): 2.67%
inhibition at 10 µM (IL-6): 1.65%

inhibition at 1 µM (DPP IV): 7.07%
inhibition at 10 µM (DPP IV): 9.86%
Compound: CCN1C(=O)OCC1Cc1ccc(Oc2ccc(/C=C3\C(=O)Nc4ccccc43)cc2C(F)(F)F)cc1 (stereo not shown) [Example 15]
inhibition at 1 µM (TNF-α; 1 μM): 24.5%
inhibition at 10 µM (TNF-α; 10 μM): 15.9%
inhibition at 1 µM (IL-1β; 1 μM, LPS 100 ng/mL, 20 hours): 1.78%
inhibition at 1 µM (IL-6): 1.16%

Compound: CN1C(=O)OCC1Cc1ccc(Oc2ccc(/C=C3\C(=O)Nc4ccccc43)c(Cl)c2)cc1 (stereo not shown) [Example 16]
inhibition at 1 µM (TNF-α; 1 μM): 6.6%

inhibition at 1 µM (DPP IV): 4.77%
inhibition at 10 µM (DPP IV): 7.25%
Compound: O=C1NC(Cc2ccc(Oc3ccc(/C=C4/SC(=O)NC4=O)cc3F)cc2)CO1 (stereo not shown) [Example 31, 5-(3-fluoro-4-{4-[(2-oxo-1,3-oxazolidin-4-yl)methyl]phenoxy}benzylidene)-1,3-thiazolidine-2,4-dione]

Compound: CN1CC(Cc2ccc(Oc3ccc(/C=C4/SC(=S)N(CC(=O)O)C4=O)cc3)cc2)OC1=O (stereo not shown) [Example 32, 3-methyl-5-(4-{4-[(E)-(3-aceticacid-4-oxo-2-thioxo-1,3-thiazolidin-5-ylidene)methyl]phenoxy}benzyl)-1,3-oxazolidin-2-one]
Stimulation Index (3T3-L1 cells): 0.89

inhibition at 1 µM (DPP IV): 9.52%
inhibition at 10 µM (DPP IV): -0.7%
Compound: CN1C(=O)OCC1Cc1ccc(Oc2ccc(/C=C3/SC(=S)NC3=O)cc2)cc1 (stereo not shown) [Example 34, 3-methyl-4-(4-{4-[(4-oxo-2-thioxo-1,3-thiazolidin-5-ylidene)methyl]phenoxy}benzyl)-1,3-oxazolidin-2-one]
% Reduction Cholesterol [1]: NR
inhibition in vivo at 50 mg/kg ([1]; read-out: % Reduction Glucose): 50.9%
inhibition in vivo at 50 mg/kg [1, 2]: 73.4%

Compound: CCN1C(=O)OCC1Cc1ccc(Oc2ccc(/C=C3/SC(=S)N(CC(=O)O)C3=O)cc2)cc1 (stereo not shown) [Example 37]
% Reduction Cholesterol [1]: NR
% Reduction Triglycerides [1]: NR
inhibition in vivo at 50 mg/kg ([1]; read-out: % Reduction Glucose): 22.5%

Compound: CN1C(=O)OCC1Cc1ccc(Oc2ccc(/C=C3/SC(=S)NC3=O)cc2Cl)cc1 (stereo not shown) [Example 40, 4-(4-{2-chloro-4-[(4-oxo-2-thioxo-1,3-thiazolidin-5-ylidene)methyl]phenoxy}benzyl)-3-methyl-1,3-oxazolidin-2-one]
% Reduction Cholesterol [1]: NR
inhibition in vivo at 50 mg/kg ([1]; read-out: % Reduction Glucose): 34.2%
inhibition in vivo at 50 mg/kg [1, 2]: 17.8%

Compound: CN1C(=O)OCC1Cc1ccc(Oc2ccc(/C=C3/SC(=S)N(CC(=O)O)C3=O)cc2Cl)cc1 (stereo not shown) [Example 41, [4-oxo-5-(3-chloro-4-{4-[(3-methyl-2-oxo-1,3-oxazolidin-4-yl)methyl]phenoxy}benzylidene)-2-thioxo-1,3-thiazolidin-3-yl]acetic acid]
% Reduction Cholesterol [1]: NR
% Reduction Triglycerides [1]: NR
inhibition in vivo at 50 mg/kg ([1]; read-out: % Reduction Glucose): 66.5%

inhibition at 1 µM (DPP IV): 1.99%
inhibition at 10 µM (DPP IV): 9.92%
Compound: CN1C(=O)OCC1Cc1ccc(Oc2ccc(/C=C3/SC(=S)NC3=O)cc2C(F)(F)F)cc1 (stereo not shown) [Example 55]

inhibition at 1 µM (DPP IV): -1.26%
inhibition at 10 µM (DPP IV): 12.4%
Compound: CCN1C(=O)OCC1Cc1ccc(Oc2ccc(/C=C3/SC(=S)NC3=O)cc2C(F)(F)F)cc1 (stereo not shown) [Example 59]

Compound: CCN1C(=O)OCC1Cc1ccc(Oc2ccc(CC3SC(=O)NC3=O)cc2)cc1 (stereo not shown) [Example 62, 5-(4-{4-[(3-ethyl-2-oxo-1,3-oxazolidin-4-yl)methyl]phenoxy}benzyl)-1,3-thiazolidine-2,4-dione]
% Reduction Cholesterol [1]: NR
inhibition in vivo at 50 mg/kg ([1]; read-out: % Reduction Glucose): 36.2%
inhibition in vivo at 50 mg/kg [1, 2]: 24.7%

Compound: CN1C(=O)OCC1Cc1ccc(Oc2ccc(CC3C(=O)Nc4ccccc43)cc2)cc1 (stereo not shown) [Example 64]
inhibition at 1 µM (TNF-α; 1 μM): 9.43%
inhibition at 10 µM (TNF-α; 10 μM): 15.6%
inhibition at 1 µM (IL-1β; 1 μM, LPS 100 ng/mL, 20 hours): 8.77%
inhibition at 10 µM (IL-1β; LPS 100 ng/mL, 20 hours): 25.9%

Compound: CCN1C(=O)OCC1Cc1ccc(Oc2ccc(CC3C(=O)Nc4ccccc43)cc2C(F)(F)F)cc1 (stereo not shown) [Example 65]
inhibition at 1 µM (TNF-α; 1 μM): 4.6%
inhibition at 10 µM (TNF-α; 10 μM): 1.67%

Compound: CCN1C(=O)OCC1Cc1ccc(Oc2ccc(CC3C(=O)Nc4ccccc43)cc2F)cc1 (stereo not shown) [Example 66]
inhibition at 1 µM (IL-6): 3.58%

Compound: COc1cc(CC2C(=O)Nc3ccccc32)ccc1Oc1ccc(CC2COC(=O)N2C)cc1 (stereo not shown) [Example 67]
inhibition at 1 µM (TNF-α; 1 μM): 20.9%
inhibition at 10 µM (TNF-α; 10 μM): 34%
inhibition at 1 µM (IL-1β; 1 μM, LPS 100 ng/mL, 20 hours): 12.1%
inhibition at 10 µM (IL-1β; LPS 100 ng/mL, 20 hours): 20.9%
inhibition at 10 µM (IL-6): 2.12%

Compound: CCN1C(=O)OCC1Cc1ccc(Oc2ccc(CC3C(=O)Nc4ccccc43)cc2OC)cc1 (stereo not shown) [Example 69]
inhibition at 1 µM (TNF-α; 1 μM): 35.2%
inhibition at 10 µM (TNF-α; 10 μM): 50.6%
inhibition of TNF-α production (TNF-α; [3]): can inhibit the production
inhibition at 1 µM (IL-1β; 1 μM, LPS 100 ng/mL, 20 hours): 33.3%
inhibition at 10 µM (IL-1β; LPS 100 ng/mL, 20 hours): 39.7%
inhibition of IL-1β production (IL-1β; [3]): can inhibit the production
inhibition at 1 µM (IL-6): 2.98%
inhibition at 10 µM (IL-6): 12.4%
inhibition of IL-6 production (IL-6; [3]): can inhibit the production

Compound: CN1C(=O)OCC1Cc1ccc(Oc2ccc(CC3SC(=O)NC3=O)cc2C(F)(F)F)cc1 (stereo not shown) [Example 71, 4-{4-[(3-methyl-2-oxo-1,3-oxazolidin-4-yl)methyl]phenoxy)-3-(trifluoromethylbenzyl]-1,3-thiazolidine-2,4-dione]
% Reduction Cholesterol [1]: NR
% Reduction Triglycerides [1]: NR
inhibition in vivo at 50 mg/kg ([1]; read-out: % Reduction Glucose): 49.9%

inhibition at 1 µM (DPP IV): 2.44%
inhibition at 10 µM (DPP IV): 7.64%
Compound: CN1C(=O)OCC1Cc1ccc(Oc2ccc(CC3C(=O)Nc4ccccc43)cc2C(F)(F)F)cc1 (stereo not shown) [Example 75]

Compound: CN1C(=O)OCC1Cc1ccc(Oc2ccc(CC3SC(=S)N(CC(=O)O)C3=O)cc2C(F)(F)F)cc1 (stereo not shown) [Example 86]
% Reduction Cholesterol [1]: NR
inhibition in vivo at 50 mg/kg ([1]; read-out: % Reduction Glucose): 48.8%
inhibition in vivo at 50 mg/kg [1, 2]: 15.5%
